Results as given in patent publication US4824834A, “Pyrazolotriazine compounds” (Otsuka Pharmaceutical Company, Limited, priority 1986, dated 1989).

Tests used:
Xanthine oxidase = molecular target: T1, Xanthine oxidase (Mus musculus, UniProt Q00519); experiment: Xanthine oxidase inhibition (in vitro), mouse small intestine xanthine oxidase solution, HPLC of uric acid; assay type: biochemical, mouse (ICR strain mice; conditions: xanthine substrate, incubated at 37° C. for 5 minutes; HPLC UV 292 nm
T1 construct: The small intestine was homogenized in 4-fold volume of cooled phosphate buffered saline solution (PBS) and then centrifuged; from tissue; host or cells: small intestine of ICR strain mice; dialysed supernatant of a 105,000 g centrifugation
T1 sequence (Q00519 whole entry): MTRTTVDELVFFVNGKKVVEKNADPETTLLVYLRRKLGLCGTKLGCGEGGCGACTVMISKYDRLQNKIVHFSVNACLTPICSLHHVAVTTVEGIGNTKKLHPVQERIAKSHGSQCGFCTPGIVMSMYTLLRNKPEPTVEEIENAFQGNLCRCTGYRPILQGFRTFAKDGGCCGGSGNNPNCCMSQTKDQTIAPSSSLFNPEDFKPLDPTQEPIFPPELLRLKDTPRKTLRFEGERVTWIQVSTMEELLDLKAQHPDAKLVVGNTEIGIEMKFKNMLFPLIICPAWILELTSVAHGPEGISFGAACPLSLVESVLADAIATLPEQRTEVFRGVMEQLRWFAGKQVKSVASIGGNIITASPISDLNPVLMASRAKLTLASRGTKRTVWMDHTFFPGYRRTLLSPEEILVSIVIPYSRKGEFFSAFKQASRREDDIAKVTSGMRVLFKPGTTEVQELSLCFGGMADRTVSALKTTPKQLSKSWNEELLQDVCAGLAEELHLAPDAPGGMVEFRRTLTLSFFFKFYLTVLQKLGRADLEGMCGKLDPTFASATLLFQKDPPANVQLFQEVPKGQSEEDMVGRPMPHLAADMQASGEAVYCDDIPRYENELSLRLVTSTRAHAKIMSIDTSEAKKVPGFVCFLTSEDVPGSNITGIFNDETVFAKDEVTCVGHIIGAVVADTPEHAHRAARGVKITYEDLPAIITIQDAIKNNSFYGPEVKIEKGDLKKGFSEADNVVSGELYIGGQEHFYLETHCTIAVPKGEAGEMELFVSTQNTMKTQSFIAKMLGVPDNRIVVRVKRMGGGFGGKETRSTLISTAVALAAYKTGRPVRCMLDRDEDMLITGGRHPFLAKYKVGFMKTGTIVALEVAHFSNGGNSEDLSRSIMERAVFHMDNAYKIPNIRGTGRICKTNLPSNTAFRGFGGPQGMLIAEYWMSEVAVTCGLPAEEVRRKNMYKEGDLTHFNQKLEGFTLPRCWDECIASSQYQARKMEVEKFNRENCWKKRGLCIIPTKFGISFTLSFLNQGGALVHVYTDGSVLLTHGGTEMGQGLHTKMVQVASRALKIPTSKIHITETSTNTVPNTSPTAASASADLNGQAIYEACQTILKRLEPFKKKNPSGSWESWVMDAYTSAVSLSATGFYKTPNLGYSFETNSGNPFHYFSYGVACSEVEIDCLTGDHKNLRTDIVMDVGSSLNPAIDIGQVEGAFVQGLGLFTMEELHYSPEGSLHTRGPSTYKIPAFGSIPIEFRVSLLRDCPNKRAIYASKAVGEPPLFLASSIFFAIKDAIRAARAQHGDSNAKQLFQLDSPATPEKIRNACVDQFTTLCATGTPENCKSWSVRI
Description: (1) Preparation of Xanthine Oxidase Solution
ICR strain mice were decapitated and the small intestine of each mouse was rapidly perfused with cooled physiological saline solution and removed. The small intestine was homogenized in 4-fold volume of cooled phosphate buffered saline solution (PBS) and then centrifuged at 105,000 g for 60 minutes. The supernatant fluid was dialyzed overnight against PBS. The dialyzed solution thus prepared was stored at -20° C. until used.
(2) Preparation of the Solution Containing the Present Compound
The compound of this invention was dissolved in DMSO (200 μl) and 2N NaOH (100 μl), and then PBS was added to prepare a solution (25 ml) containing 10^-3 M of the compound of this invention. This solution was diluted with PBS to prepare solutions containing the compound in the concentration of 10^-4, 10^-5, 10^-6, 10^-7, 10^-8, 10^-9, 10^-10, and 10^-11 M, respectively.
(3) Method for the Measurement
The assay mixture, consisted of the composition mentioned below, was incubated at 37° C. for 5 minutes. The reaction was stopped by heating in boiling water for one minute. Twenty microliters of the supernatant was analyzed by high performance liquid chromatography (HPLC) under the conditions mentioned below.
Xanthine oxidase solution (diluted in 4-folds with PBS): 200 μl
Solution containing the present compound: 200 μl
Column: osmosil packed column (.phi. 4. mm×150 mm, 5C18×300)
(§1) Eluting solution: 10 mM phosphate buffer (pH 6.0)
(§2) Retention time: 2.4 minutes (uric acid)
(4) Percent Inhibition of the Compound Against Xanthine Oxidase
The percent inhibition was calculated by the following equation. [formula]
As to each of the solutions containing the present compound as prepared in the above (2), the percent inhibition was calculted, and IC50 values were obtained from a plot of the percent inhibition against the log of the concentration of the compound of this invention.

uric acid in serum = experiment: Lowering effect of test compound on the level of uric acid in serum (in vivo, oral administration); parameters: species or system mouse (normal male ICR mice); conditions: Mus musculus, 4 hours after administration, male ICR mice, suspended in 0.5% CMC-Na, read-out: in vivo Lowering rate (%) of uric acid in serum (in 4 hours)
Description: Experiment 2 (In Vivo: Oral Administration)
(1) Animals, Method of Administration and Sampling of Serum
Normal male ICR mice (weighting about 30 g), were provided normal diet and tap water ad libitum. A test compound suspended in 0.5% CMC-Na was administered orally to the mice (each group: 6 mice) in a dose of 5 mg/kg.
(2) Measurement of Amount of Uric Acid in Serum
To the serum (200 μl) was added 10% perchloric acid (100 μl), and the mixture was centrifuged. To the supernatant fluid (100 μl) was added 0.2M Na2 HPO4 (200 μl), and the mixture (20 μl) was analyzed by HPLC to measure the amount of uric acid. The HPLC was carried out under the following conditions.
Column: Cosmosil packed column (.phi. 4.6 mm×150 mm, 5C18 -300)
as §1, §2
(3) Lowering Effect of Test Compound on the Level of Uric Acid in Serum
The lowering rate of uric acid in serum was calculated by the following equation. [formula]

Row | IC50 (Xanthine oxidase) [nM] | SMILES | inhibition in vivo at 5 mg/kg (uric acid in serum) [%]
1 | 2.7 | CSc1ccc(-c2cnn3c(O)ncnc23)cc1Br [Example 146, 8-(3-Bromo-4-methylthiophenyl)-4-hydroxypyrazolo[1,5-a]-1,3,5-triazine] | 47
2 | 8 | [O-][S+](c1ccccc1)c1ccc(-c2cnn3c(O)ncnc23)cc1 (centres unmarked) [Example 170, 4-Hydroxy-8-(4-phenylsulfinylphenyl)pyrazolo[1,5-a]-1,3,5-triazine] | 57.2
3 | 2.4 | Cc1cc(-c2cnn3c(O)ncnc23)ccc1[S+]([O-])c1ccccc1 (centres unmarked) [Example 171, 4-Hydroxy-8-(3-methyl-4-phenylsulfinylphenyl)pyrazolo[1,5-a]-1,3,5-triazine] | 73.6
4 | 25 | COc1cc(-c2cnn3c(O)ncnc23)ccc1[S+]([O-])c1ccccc1 (centres unmarked) [Example 187, 4-Hydroxy-8-(3-methoxy-4-phenylsulfinylphenyl)pyrazolo[1,5-a]-1,3,5-triazine] | 63.9
